Data: ChEMBL document CHEMBL1137802, “Specific antioxidant activity of caffeoyl derivatives and other natural phenolic compounds: LDL protection against oxidation and decrease in the proinflammatory lysophosphatidylcholine production” (J Nat Prod, 2001)

Experiments:
Assay type in all cases: functional, cell-free
[1] = Antioxidant activity against Cu2+-induced lipid peroxidation in human plasma LDL assessed as conjugated diene formation at 20 umol/L preincubated for 1 hr before Cu2+ challenge measured after 360 mins
[2] = Antioxidant activity against Cu2+-induced lipid peroxidation in human plasma LDL assessed as conjugated diene formation at 10 umol/L preincubated for 1 hr before Cu2+ challenge measured after 180 mins
[3] = Antioxidant activity against Cu2+-induced lipid peroxidation in human plasma LDL assessed as lysophosphatidylcholine formation at 5 umol/L preincubated for 1 hr before Cu2+ challenge measured after 60 mins
[4] = Antioxidant activity against Cu2+-induced lipid peroxidation in human plasma LDL assessed as vitamin E consumption at 5 umol/L preincubated for 1 hr before Cu2+ challenge measured after 210 mins
[5] = Antioxidant activity against Cu2+-induced lipid peroxidation in human plasma LDL assessed as lysophosphatidylcholine formation at 20 umol/L preincubated for 1 hr before Cu2+ challenge measured after 90 mins
[6] = Antioxidant activity against Cu2+-induced lipid peroxidation in human plasma LDL assessed as lysophosphatidylcholine formation at 20 umol/L preincubated for 1 hr before Cu2+ challenge measured after 360 mins
[7] = Antioxidant activity against Cu2+-induced lipid peroxidation in human plasma LDL assessed as conjugated diene formation at 20 umol/L preincubated for 1 hr before Cu2+ challenge measured after 270 mins
[8] = Antioxidant activity against Cu2+-induced lipid peroxidation in human plasma LDL assessed as maximal compound concentration at 10 umol/L preincubated for 1 hr before Cu2+ challenge measured after 30 mins relative to compound present at 0 min
[9] = Antioxidant activity against Cu2+-induced lipid peroxidation in human plasma LDL assessed as maximal compound concentration at 20 umol/L preincubated for 1 hr before Cu2+ challenge measured after 180 mins relative to compound present at 0 min
[10] = Antioxidant activity against Cu2+-induced lipid peroxidation in human plasma LDL assessed as vitamin E consumption at 5 umol/L preincubated for 1 hr before Cu2+ challenge measured after 30 mins
[11] = Antioxidant activity against Cu2+-induced lipid peroxidation in human plasma LDL assessed as lysophosphatidylcholine formation at 5 umol/L preincubated for 1 hr before Cu2+ challenge measured after 270 mins
[12] = Antioxidant activity against Cu2+-induced lipid peroxidation in human plasma LDL assessed as maximal compound concentration at 10 umol/L preincubated for 1 hr before Cu2+ challenge measured after 270 mins relative to compound present at 0 min
[13] = Antioxidant activity against Cu2+-induced lipid peroxidation in human plasma LDL assessed as maximal compound concentration at 5 umol/L preincubated for 1 hr before Cu2+ challenge measured after 90 mins relative to compound present at 0 min
[14] = Antioxidant activity against Cu2+-induced lipid peroxidation in human plasma LDL assessed as maximal compound concentration at 20 umol/L preincubated for 1 hr before Cu2+ challenge measured after 45 mins relative to compound present at 0 min
[15] = Antioxidant activity against Cu2+-induced lipid peroxidation in human plasma LDL assessed as lysophosphatidylcholine formation at 5 umol/L preincubated for 1 hr before Cu2+ challenge measured after 360 mins
[16] = Antioxidant activity against Cu2+-induced lipid peroxidation in human plasma LDL assessed as lysophosphatidylcholine formation at 20 umol/L preincubated for 1 hr before Cu2+ challenge measured after 150 mins
[17] = Antioxidant activity against Cu2+-induced lipid peroxidation in human plasma LDL assessed as vitamin E consumption at 5 umol/L preincubated for 1 hr before Cu2+ challenge measured after 45 mins
[18] = Antioxidant activity against Cu2+-induced lipid peroxidation in human plasma LDL assessed as vitamin E consumption at 10 umol/L preincubated for 1 hr before Cu2+ challenge measured after 90 mins
[19] = Antioxidant activity against Cu2+-induced lipid peroxidation in human plasma LDL assessed as vitamin E consumption at 20 umol/L preincubated for 1 hr before Cu2+ challenge measured after 15 mins
[20] = Antioxidant activity against Cu2+-induced lipid peroxidation in human plasma LDL assessed as maximal compound concentration at 5 umol/L preincubated for 1 hr before Cu2+ challenge measured after 45 mins relative to compound present at 0 min
[21] = Antioxidant activity against Cu2+-induced lipid peroxidation in human plasma LDL assessed as maximal compound concentration at 20 umol/L preincubated for 1 hr before Cu2+ challenge measured after 270 mins relative to compound present at 0 min
[22] = Antioxidant activity against Cu2+-induced lipid peroxidation in human plasma LDL assessed as maximal compound concentration at 10 umol/L preincubated for 1 hr before Cu2+ challenge measured after 60 mins relative to compound present at 0 min
[23] = Antioxidant activity against Cu2+-induced lipid peroxidation in human plasma LDL assessed as vitamin E consumption at 5 umol/L preincubated for 1 hr before Cu2+ challenge measured after 270 mins
[24] = Antioxidant activity against Cu2+-induced lipid peroxidation in human plasma LDL assessed as lysophosphatidylcholine formation at 20 umol/L preincubated for 1 hr before Cu2+ challenge measured after 210 mins
[25] = Antioxidant activity against Cu2+-induced lipid peroxidation in human plasma LDL assessed as conjugated diene formation at 20 umol/L preincubated for 1 hr before Cu2+ challenge measured after 180 mins
[26] = Antioxidant activity against Cu2+-induced lipid peroxidation in human plasma LDL assessed as maximal compound concentration at 10 umol/L preincubated for 1 hr before Cu2+ challenge measured after 90 mins relative to compound present at 0 min
[27] = Antioxidant activity against Cu2+-induced lipid peroxidation in human plasma LDL assessed as vitamin E consumption at 10 umol/L preincubated for 1 hr before Cu2+ challenge measured after 15 mins
[28] = Antioxidant activity against Cu2+-induced lipid peroxidation in human plasma LDL assessed as maximal compound concentration at 20 umol/L preincubated for 1 hr before Cu2+ challenge measured after 120 mins relative to compound present at 0 min
[29] = Antioxidant activity against Cu2+-induced lipid peroxidation in human plasma LDL assessed as vitamin E consumption at 10 umol/L preincubated for 1 hr before Cu2+ challenge measured after 270 mins
[30] = Antioxidant activity against Cu2+-induced lipid peroxidation in human plasma LDL assessed as lysophosphatidylcholine formation at 10 umol/L preincubated for 1 hr before Cu2+ challenge measured after 210 mins
[31] = Antioxidant activity against Cu2+-induced lipid peroxidation in human plasma LDL assessed as conjugated diene formation at 5 umol/L preincubated for 1 hr before Cu2+ challenge measured after 360 mins
[32] = Antioxidant activity against Cu2+-induced lipid peroxidation in human plasma LDL assessed as conjugated diene formation at 10 umol/L preincubated for 1 hr before Cu2+ challenge measured after 270 mins
[33] = Antioxidant activity against Cu2+-induced lipid peroxidation in human plasma LDL assessed as vitamin E consumption at 20 umol/L preincubated for 1 hr before Cu2+ challenge measured after 60 mins

CC(C)(Sc1cc(C(C)(C)C)c(O)c(C(C)(C)C)c1)Sc1cc(C(C)(C)C)c(O)c(C(C)(C)C)c1
Activity [1]: 2.3%
Activity [2]: 77.3%
Activity [3]: 2.5%
Activity [4]: 0%
Activity [5]: 1.1%
Activity [6]: 1.9%
Activity [7]: 2.6%
Activity [8]: 82%
Activity [9]: 34.4%
Activity [10]: 15.5%
Activity [11]: 26.1%
Activity [12]: 15.8%
Activity [13]: 55.3%
Activity [14]: 87.7%
Activity [15]: 29.1%
Activity [16]: 1.3%
Activity [17]: 7.5%
Activity [18]: 0%
Activity [19]: 38.2%
Activity [20]: 114%
Activity [21]: 34.6%
Activity [22]: 34.1%
Activity [23]: 0%
Activity [24]: 1.4%
Activity [25]: 2.6%
Activity [26]: 27.2%
Activity [27]: 51.8%
Activity [28]: 43.2%
Activity [29]: 0%
Activity [30]: 9.1%
Activity [31]: 100%
Activity [32]: 79.9%
Activity [33]: 5.5%
